The test system of assay [1] is Pfeiffer cell line (diffuse large B cell lymphoma). In words: Pfeiffer Cell Proliferation Assay (Example B2). It is filed as cell-based, human. How it is done:
Pfeiffer cell line (diffuse large B cell lymphoma) are purchased from ATCC (Manassas, Va.) and maintained in the culture medium recommended (RPMI and 10% FBS). To measure the anti-proliferation activity of the compounds, the Pfeiffer cells are plated with the culture medium (2×10^3 cells well per […]) into 96-well ultra-low binding plates (Corning, Corning, N.Y.), in the presence or absence of a concentration range of test compounds. After 3-4 days, [^3H]-thymidine (1 μCi/well) (PerkinElmer, Boston, Mass.) in PBS is then added to the cell culture for an additional 12 hours before the incorporated radioactivity is separated by filtration with water through GF/B filters (Packard Bioscience, Meriden, Conn.) and measured by liquid scintillation counting with a TopCount (Packard Bioscience).

Assay [2] relates to Pfeiffer human tumor xenograft model of diffuse large B-cell lymphoma. In words: Pfeiffer Model of Lymphoma (Example D). It is filed as in vivo. The conditions noted are these: SCID mice. How it is done:
Female SCID mice, (5 to 8 weeks of age, Charles River Laboratories, Wilmington, Mass.) were inoculated with 1×10^7 tumor cells (Pfeiffer, ATCC #CRL-2632, Manassas, Va.) and matrigel (BD Biosciences #354234) in 0.2 mL sterile saline. The inoculation was performed subcutaneously on the flank. Tumor tissue fragments (approximately 3 mm×3 mm) were collected 3 to 6 weeks after the inoculation of cultured cells and implanted subcutaneously in lieu of cellular inoculation. Tissue fragments were implanted as solid pieces using blunt-tip forceps. The treatment of tumor bearing mice was started 15 to 25 days after tumor inoculation, depending upon the tumor size. Animals were sorted to obtain roughly equivalent mean tumor volumes in each group. Minimum mean tumor volume in all groups was 150 mm3 on the first day of treatment and groups consisted of 7 animals. Experimental therapeutic agent, Example 347, was administered to mice orally (PO). Treatment frequency was 2 times daily for a minimum of 14 days for efficacy. The size of subcutaneous tumors was measured 2 to 3 times weekly using a digital caliper. The tumor volume was calculated by measuring the tumor in 2 dimensions and utilizing the equation: Volume=[Length×(Width2)]/2; where the larger number was length, and the smaller number width. If multiple tumors were formed, the final volume was the sum of the individual tumors subject to the same equation: eg, 2 tumors; Volume={[L1×(W1)2]/2}+{[L2×(W2)2]/2}. Effects on tumor growth were reported as percent tumor growth inhibition (% TGI). Percent TGI was calculated with the equation: (1−(Tx vol./control vol.))*100, where control volume was the vehicle or untreated tumor volume on a given day, and Tx volume was any treatment group tumor volume on that same day. Statistical differences between treatment and vehicle controls were assessed using ANOVA: Single Factor test.

In a further assay the target is PI3Kδ (p110δ/p85α) (Homo sapiens (Human), UniProt O00329). In words: PI3Kδ Scintillation Proximity Assay (Example A3). The format is biochemical. The conditions noted are these: 20 μM ATP, 20 μM PIP2, 4 nM PI3Kδ, read-out: PI3Kδ SPA IC50. The method, boiled down: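 SPA with 4 nM p110δ/p85α, 20 μM PIP2, 20 μM ATP plus [γ-^33P]ATP, in 20 mM MOPS pH 6.7, 10 mM MgCl2, 5 mM DTT, 0.03% CHAPS, 0.5% DMSO, room temperature. Stopped with EDTA/ATP, WGA SPA beads, overnight shaking, scintillation counting. IC50 from % control activity vs log concentration.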
Sequence of PI3Kδ (p110δ/p85α) (O00329 whole entry): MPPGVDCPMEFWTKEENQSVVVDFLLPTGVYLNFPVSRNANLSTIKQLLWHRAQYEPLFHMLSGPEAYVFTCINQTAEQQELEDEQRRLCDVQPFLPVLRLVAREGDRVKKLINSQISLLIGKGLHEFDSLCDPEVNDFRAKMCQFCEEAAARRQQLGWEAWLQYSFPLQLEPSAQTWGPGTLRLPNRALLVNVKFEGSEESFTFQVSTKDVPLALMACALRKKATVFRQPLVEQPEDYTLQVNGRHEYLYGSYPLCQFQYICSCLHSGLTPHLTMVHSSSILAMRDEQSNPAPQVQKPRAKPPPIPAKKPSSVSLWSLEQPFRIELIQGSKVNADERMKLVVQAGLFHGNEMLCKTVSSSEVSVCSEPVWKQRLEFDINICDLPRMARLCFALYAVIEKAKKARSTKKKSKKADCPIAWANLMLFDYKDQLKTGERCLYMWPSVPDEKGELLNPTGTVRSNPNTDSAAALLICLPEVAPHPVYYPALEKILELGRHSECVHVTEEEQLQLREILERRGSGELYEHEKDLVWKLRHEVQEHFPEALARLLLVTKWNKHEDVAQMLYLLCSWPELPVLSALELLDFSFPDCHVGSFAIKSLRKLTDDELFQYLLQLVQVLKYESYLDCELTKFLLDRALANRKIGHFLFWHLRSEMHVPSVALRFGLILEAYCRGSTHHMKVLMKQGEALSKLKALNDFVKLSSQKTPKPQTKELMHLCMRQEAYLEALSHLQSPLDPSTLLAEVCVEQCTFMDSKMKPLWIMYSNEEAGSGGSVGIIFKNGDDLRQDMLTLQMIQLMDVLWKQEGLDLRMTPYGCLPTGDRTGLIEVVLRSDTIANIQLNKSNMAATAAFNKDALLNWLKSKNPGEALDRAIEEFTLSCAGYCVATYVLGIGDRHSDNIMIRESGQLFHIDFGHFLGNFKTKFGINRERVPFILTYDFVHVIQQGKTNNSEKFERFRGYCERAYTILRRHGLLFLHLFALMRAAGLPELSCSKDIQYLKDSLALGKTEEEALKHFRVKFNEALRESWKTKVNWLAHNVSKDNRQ
Sequence of PI3Kδ (p110δ/p85α) (P27986 whole entry partner): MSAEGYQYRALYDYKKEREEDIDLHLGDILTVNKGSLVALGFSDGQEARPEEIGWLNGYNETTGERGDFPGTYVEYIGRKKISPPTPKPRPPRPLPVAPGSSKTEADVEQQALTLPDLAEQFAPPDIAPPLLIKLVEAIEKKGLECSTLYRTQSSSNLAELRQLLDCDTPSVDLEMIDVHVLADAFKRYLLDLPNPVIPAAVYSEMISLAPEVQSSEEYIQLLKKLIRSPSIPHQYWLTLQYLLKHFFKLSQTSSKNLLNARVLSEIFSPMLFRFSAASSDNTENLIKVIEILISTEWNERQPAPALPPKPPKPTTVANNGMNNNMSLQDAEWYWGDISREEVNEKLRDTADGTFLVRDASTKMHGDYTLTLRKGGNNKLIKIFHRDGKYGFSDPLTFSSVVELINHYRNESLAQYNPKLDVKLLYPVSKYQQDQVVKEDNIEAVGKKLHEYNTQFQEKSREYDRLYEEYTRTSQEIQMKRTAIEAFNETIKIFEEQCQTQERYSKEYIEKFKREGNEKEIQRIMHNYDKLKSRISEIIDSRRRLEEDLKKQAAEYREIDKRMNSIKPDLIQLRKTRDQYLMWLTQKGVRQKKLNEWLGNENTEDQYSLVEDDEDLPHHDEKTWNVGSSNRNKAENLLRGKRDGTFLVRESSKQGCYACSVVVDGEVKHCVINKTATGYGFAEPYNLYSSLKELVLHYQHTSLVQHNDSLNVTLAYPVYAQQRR

The next assay addresses PI3Kδ (Homo sapiens (Human), UniProt O00329). In words: PI3K Enzyme Assay (Example A2, [γ-33P]ATP filter plate). It is filed as biochemical. The conditions noted are these: 1000 μM ATP, 50 μM PIP2. The procedure:
PI3K isoforms α, β, δ and γ are purchased from Millipore (Bedford, Mass.).
Inhibitors are first diluted serially in DMSO and added to the plate wells before the addition of other reaction components. The final concentration of DMSO in the assay is 0.5%. The PI3K assays are carried out at room temperature in 20 mM MOPS, pH 6.7, 10 mM MgCl2, 5 mM DTT and CHAPS 0.03%. The reaction mixture is prepared containing 50 μM PIP2, kinase and varying concentration of inhibitors. Reactions are initiated by the addition of ATP containing 2.2 μCi [γ-^33P]ATP to a final concentration of 1000 μM. […] After drying by aspiration and blotting, the plate is air dried in an incubator at 37° C. overnight. Packard TopCount adapter (Millipore) is then attached to the plate followed with addition of 120 μL Microscint 20 scintillation cocktail (Perkin Elmer) in each well. […] IC50 determination is performed by fitting the curve of percent control activity versus the log of the inhibitor concentration using the GraphPad Prism 3.0 software.

Where only a bound is given, the exact number is not on record here.

Sequence of PI3Kδ (O00329 whole entry, canonical isoform): as the sequence (O00329 whole entry) above
Sequence of PI3Kδ (P27986 whole entry partner, canonical isoform): as the sequence (P27986 whole entry partner) above

With `CCOc1c(C(C)n2nc(C)c3c(N)ncnc32)cc(Cl)c(F)c1C1CNC(=O)C1` (single isomer, unassigned) [Example 347, 4-{3-[1-(4-amino-3-methyl-1H-pyrazolo[3,4-d]pyrimidin-1-yl)ethyl]-5-chloro-2-ethoxy-6-fluorophenyl}pyrrolidin-2-one], the “anti-proliferative effects in vitro on Pfeiffer cancer cells” value in assay [1] is reported as “sensitive”. Besides, the “percent tumor growth inhibition” value in assay [2] (0.3 mg/kg oral twice daily for 14 days) turned out to be 22%; in assay [2] (1 mg/kg oral twice daily for 14 days), 24%; in assay [2] (3 mg/kg oral twice daily for 14 days) it was 36%; in assay [2] (10 mg/kg oral twice daily for 14 days), 58%.

As for `COc1c(C(C)n2nc(C)c3c(N)ncnc32)cc(Cl)c(C#N)c1C1CN(C(C)CO)C1` (stereo not shown) [Example 272, 4-[1-(4-amino-3-methyl-1H-pyrazolo[3,4-d]pyrimidin-1-yl)ethyl]-6-chloro-2-[1-(2-hydroxy-1-methylethyl)azetidin-3-yl]-3-methoxybenzonitrile], the IC50 at PI3Kδ (p110δ/p85α) was less than 10 nM.

As to `CCOc1c(C(C)n2nc(C)c3c(N)ncnc32)cc(Cl)c(C)c1C1CNC(=O)C1` (stereo not shown) [Example 310, 4-{3-[1-(4-amino-3-methyl-1H-pyrazolo[3,4-d]pyrimidin-1-yl)ethyl]-5-chloro-2-ethoxy-6-methylphenyl}pyrrolidin-2-one], on PI3Kδ (p110δ/p85α), the IC50 was less than 10 nM.

As for `COc1c(C(C)n2nc(C)c3c(N)ncnc32)cc(Cl)c(C)c1C1CNC(=O)O1` (stereo not shown) [Example 325, 5-{3-[1-(4-Amino-3-methyl-1H-pyrazolo[3,4-d]pyrimidin-1-yl)ethyl]-5-chloro-2-methoxy-6-methylphenyl}-1,3-oxazolidin-2-one], the IC50 at PI3Kδ (p110δ/p85α) is less than 10 nM.

On PI3Kδ, `COc1c([C@@H](C)n2nc(C)c3c(N)ncnc32)cc(Cl)c(C#N)c1C1CN(C[C@H](C)O)C1` [Example 361, 4-((R)-1-(4-amino-3-methyl-1H-pyrazolo[3,4-d]pyrimidin-1-yl)ethyl)-6-chloro-2-(1-((S)-2-hydroxypropyl)azetidin-3-yl)-3-methoxybenzonitrile] gave an IC50 greater than 500 nM.

With `COc1c([C@H](C)n2nc(C)c3c(N)ncnc32)cc(Cl)c(C#N)c1C1CN(C[C@@H](C)O)C1` [Example 362], the IC50 on PI3Kδ (p110δ/p85α) is less than 10 nM.

Source of the values: patent US9932341B2, “Use of pyrazolopyrimidine derivatives for the treatment of PI3K-delta related disorders” (Incyte Corporation, priority 2013, dated 2018).
